Patent publication US20160355475A1, “NOVEL INDOLE DERIVATIVE COMPOUND AND PHARMACEUTICAL COMPOSITION COMPRISING THE SAME” (CHONG KUN DANG PHARMACEUTICAL CORP., priority 2014, published 2016)

Experiments:
HDAC1 = molecular target: T1, HDAC1 (Homo sapiens, UniProt Q13547); assay: HDAC1 enzyme activity inhibition (HDAC1 fluorimetric drug discovery assay kit); assay type: biochemical; details: 37° C., 60 minutes; tested at 100, 1000 and 10000 nM
T1 construct: purchased Enzolifesciences BML-AK511
Experimental: (§1) 1. Experiment on Activities in HDAC Enzymes (HDAC1 and HDAC6)
(§2) Assays were performed using a HDAC1 fluorimetric drug discovery assay kit (Enzolifesciences: BML-AK511) and a HDAC6 human recombinant (Calbiochem: 382180). The assay mixture of the kit was treated with each of the compounds of the Examples at concentrations 100, 1000 and 10000 nM for HDAC1 assay and 0.1, 1, 10, 100 and 1000 nM for HDAC6 assay. The treated assay mixture was allowed to react at 37° C. for 60 minutes, and then was treated with a developer and allowed to stand at 37° C. for 30 minutes, followed by quantification of the fluorescence. In Table 17, lower HDAC6 values (μM) indicate higher HDAC6 inhibitory activities of the compounds. Also, because selective HDAC6 inhibitors should not inhibit HDAC1 (μM), higher HDAC1 values indicate higher HDAC6 selectivity of the compounds.

HDAC6 human recombinant = molecular target: T2, HDAC6 human recombinant (Homo sapiens, UniProt Q9UBN7); assay: HDAC6 enzyme activity inhibition (fluorimetric, in vitro); assay type: biochemical; details: 37° C., 60 minutes; tested at 0.1, 1, 10, 100 and 1000 nM
T2 construct: purchased Calbiochem 382180
T2 sequence (Q9UBN7 1-1215): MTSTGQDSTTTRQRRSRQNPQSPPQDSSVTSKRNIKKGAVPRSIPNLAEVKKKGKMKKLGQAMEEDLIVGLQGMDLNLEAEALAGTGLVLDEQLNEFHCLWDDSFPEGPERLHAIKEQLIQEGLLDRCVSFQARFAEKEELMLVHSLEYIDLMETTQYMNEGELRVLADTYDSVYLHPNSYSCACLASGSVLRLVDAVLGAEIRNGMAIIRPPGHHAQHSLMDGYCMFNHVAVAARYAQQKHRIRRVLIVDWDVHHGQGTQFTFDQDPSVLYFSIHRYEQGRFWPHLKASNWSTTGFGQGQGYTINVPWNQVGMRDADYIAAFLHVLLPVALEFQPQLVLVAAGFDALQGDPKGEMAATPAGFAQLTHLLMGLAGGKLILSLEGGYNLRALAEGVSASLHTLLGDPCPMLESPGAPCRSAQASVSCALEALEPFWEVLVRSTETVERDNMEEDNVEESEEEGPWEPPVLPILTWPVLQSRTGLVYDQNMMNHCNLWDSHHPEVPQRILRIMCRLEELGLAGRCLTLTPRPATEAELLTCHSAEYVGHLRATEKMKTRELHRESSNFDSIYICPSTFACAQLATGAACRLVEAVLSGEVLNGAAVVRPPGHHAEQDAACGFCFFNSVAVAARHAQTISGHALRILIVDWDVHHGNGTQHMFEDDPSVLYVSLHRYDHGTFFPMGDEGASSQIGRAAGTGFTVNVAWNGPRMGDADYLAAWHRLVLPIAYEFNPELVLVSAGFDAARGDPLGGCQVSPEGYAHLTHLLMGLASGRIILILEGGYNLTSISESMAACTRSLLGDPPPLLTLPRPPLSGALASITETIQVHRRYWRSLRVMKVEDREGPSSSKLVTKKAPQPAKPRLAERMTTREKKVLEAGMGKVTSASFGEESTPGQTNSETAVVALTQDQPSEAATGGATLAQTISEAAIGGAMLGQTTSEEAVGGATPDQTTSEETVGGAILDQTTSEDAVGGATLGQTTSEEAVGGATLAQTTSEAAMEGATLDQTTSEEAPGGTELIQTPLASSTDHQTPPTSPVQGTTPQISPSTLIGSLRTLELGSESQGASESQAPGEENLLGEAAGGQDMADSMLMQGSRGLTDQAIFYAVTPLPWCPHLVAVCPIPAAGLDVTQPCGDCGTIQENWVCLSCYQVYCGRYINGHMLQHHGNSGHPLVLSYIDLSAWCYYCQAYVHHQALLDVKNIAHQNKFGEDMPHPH
Experimental: as §1, §2

T1 sequence (Q13547 whole entry): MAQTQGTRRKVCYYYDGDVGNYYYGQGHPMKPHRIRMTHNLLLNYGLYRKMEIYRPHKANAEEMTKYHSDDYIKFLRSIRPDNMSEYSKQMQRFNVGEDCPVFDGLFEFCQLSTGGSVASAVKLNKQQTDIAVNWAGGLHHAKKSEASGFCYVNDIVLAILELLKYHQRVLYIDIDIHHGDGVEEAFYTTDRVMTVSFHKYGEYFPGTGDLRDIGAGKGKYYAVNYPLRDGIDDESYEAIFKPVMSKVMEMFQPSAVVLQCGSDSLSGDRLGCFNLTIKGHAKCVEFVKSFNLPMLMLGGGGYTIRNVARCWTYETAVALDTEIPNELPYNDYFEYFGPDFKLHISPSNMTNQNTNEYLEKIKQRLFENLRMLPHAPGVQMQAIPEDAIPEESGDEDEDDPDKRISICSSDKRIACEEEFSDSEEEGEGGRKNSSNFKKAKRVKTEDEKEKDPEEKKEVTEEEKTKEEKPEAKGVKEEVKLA

Row | IC50 (HDAC1) | IC50 (HDAC6 human recombinant) | Compound
1 | > 10 µM | 870 nM | CCC(F)(CC)CN1CCC(CCn2c(C)c(Cc3ccc(C(=O)NO)cc3)c3ccccc32)CC1 [Compound 581, 4-((1-(2-(1-(2-Ethyl-2-fluorobutyl)piperidin-4-yl)ethyl)-2-methyl-1H-indol-3-yl)methyl)-N-hydroxybenzamide]
2 | 0.37 µM | 25 nM | Cc1c(Cc2ccc(C(=O)NO)cc2)c2ccccc2n1CCN1CCN(CC(C)(C)F)CC1 [Compound 564, 4-((1-(2-(4-(2-Fluoro-2-methylpropyl)piperazin-1-yl)ethyl)-2-methyl-1H-indol-3-yl)methyl)-N-hydroxybenzamide]
3 | 4.98 µM | 76 nM | Cc1c(Cc2ccc(C(=O)NO)cc2)c2ccccc2n1CCCCN1CCN(CC(C)(C)F)CC1 [Compound 639, 4-((1-(4-(4-(2-Fluoro-2-methylpropyl)piperazin-1-yl)butyl)-2-methyl-1H-indol-3-yl)methyl)-N-hydroxybenzamide]
4 | 8.1 µM | 39 nM | Cc1c(Cc2ccc(C(=O)NO)cc2)c2ccccc2n1CCN1CCC(F)CC1 [Compound 553, 4-((1-(2-(4-Fluoropiperidin-1-yl)ethyl)-2-methyl-1H-indol-3-yl)methyl)-N-hydroxybenzamide]
5 | 7.14 µM | 32 nM | Cc1c(Cc2ccc(C(=O)NO)cc2)c2ccccc2n1CCN1CC[C@H](F)C1 [Compound 593, (S)-4-((1-(2-(3-fluoropyrrolidin-1-yl)ethyl)-2-methyl-1H-indol-3-yl)methyl)-N-hydroxybenzamide]
6 | 4.58 µM | 28 nM | Cc1c(Cc2ccc(C(=O)NO)cc2)c2ccccc2n1CC1CCN(CC2(C)COC2)CC1 [Compound 643, N-hydroxy-4-((2-methyl-1-((1-((3-methyloxetan-3-yl)methyl)piperidin-4-yl)methyl)-1H-indol-3-yl)methyl)benzamide]
7 | 6.11 µM | 80 nM | CCCCN1CCC(Cn2c(C)c(Cc3ccc(C(=O)NO)cc3)c3ccccc32)CC1 [Compound 558, 4-((1-((1-Butylpiperidin-4-yl)methyl)-2-methyl-1H-indol-3-yl)methyl)-N-hydroxybenzamide]

The remaining lines, values behind:

Row | Compound | IC50 (HDAC1) | IC50 (HDAC6 human recombinant)
8 | Cc1c(Cc2ccc(C(=O)NO)cc2)c2ccccc2n1CC1CCN(CC2(F)CCN(C)CC2)CC1 [Compound 679, 4-((1-((1-((4-Fluoro-1-methylpiperidin-4-yl)methyl)piperidin-4-yl)methyl)-2-methyl-1H-indol-3-yl)methyl)-N-hydroxybenzamide] | 0.832 µM | 13 nM
9 | O=C(NO)c1ccc(Cc2c(CN3CCOCC3)[nH]c3ccccc23)cc1 [Compound 155, N-hydroxy-4-((2-(morpholinomethyl)-1H-indol-3-yl)methyl)benzamide] | 3.86 µM | 24 nM
10 | Cc1c(Cc2ccc(C(=O)NO)cc2)c2ccccc2n1CCN1CCN(C)CC1 [Compound 154, N-hydroxy-4-((2-methyl-1-(2-(4-methylpiperazin-1-yl)ethyl)-1H-indol-3-yl)methyl)benzamide] | 2.22 µM | 8 nM
11 | CC(=O)N1CCC(F)(CN2CCC(Cn3c(C)c(Cc4ccc(C(=O)NO)cc4)c4ccccc43)CC2)CC1 [Compound 612, 4-((1-((1-((1-acetyl-4-fluoropiperidin-4-yl)methyl)piperidin-4-yl)methyl)-2-methyl-1H-indol-3-yl)methyl)-N-hydroxybenzamide] | 9.1 µM | 61 nM
12 | Cc1c(Cc2ccc(C(=O)NO)cc2)c2ccccc2n1CC1CCN(CC2(C(F)(F)F)CCC2)CC1 [Compound 728, N-hydroxy-4-((2-methyl-1-((1-((1-(trifluoromethyl)cyclobutyl)methyl)piperidin-4-yl)methyl)-1H-indol-3-yl)methyl)benzamide] | > 10 µM | 1190 nM
13 | Cc1c(Cc2ccc(C(=O)NO)cc2)c2ccccc2n1CCN1C[C@@H](C)N(CC(C)(C)F)[C@@H](C)C1 [Compound 633, 4-((1-(2-((3S,5R)-4-(2-fluoro-2-methylpropyl)-3,5-dimethylpiperazin-1-yl)ethyl)-2-methyl-1H-indol-3-yl)methyl)-N-hydroxybenzamide] | 1.76 µM | 75 nM
14 | COC[C@@H]1CCCN1CCn1c(C)c(Cc2ccc(C(=O)NO)cc2)c2ccccc21 [Compound 200, (S)—N-hydroxy-4-((1-(2-(2-(methoxymethyl)pyrrolidin-1-yl)ethyl)-2-methyl-1H-indol-3-yl)methyl)benzamide] | 2.61 µM | 8 nM
15 | CC(C)(F)CN1CCC(Cn2c(-c3cncnc3)c(Cc3ccc(C(=O)NO)cc3)c3ccccc32)CC1 [Compound 625, 4-((1-((1-(2-Fluoro-2-methylpropyl)piperidin-4-yl)methyl)-2-(pyrimidin-5-yl)-1H-indol-3-yl)methyl)-N-hydroxybenzamide] | 5.72 µM | 71 nM
16 | Cc1c(Cc2ccc(C(=O)NO)cc2)c2ccccc2n1CC1CCN(Cc2cccc(-c3nccs3)c2)CC1 [Compound 603, N-hydroxy-4-((2-methyl-1-((1-(3-(thiazol-2-yl)benzyl)piperidin-4-yl)methyl)-1H-indol-3-yl)methyl)benzamide] | > 10 µM | 206 nM
17 | Cc1c(Cc2ccc(C(=O)NO)cc2)c2ccccc2n1CC1CCN(CC2(F)CCN(S(C)(=O)=O)CC2)CC1 [Compound 696, 4-((1-((1-((4-Fluoro-1-(methylsulfonyl)piperidin-4-yl)methyl)piperidin-4-yl)methyl)-2-methyl-1H-indol-3-yl)methyl)-N-hydroxybenzamide] | > 10 µM | 123 nM
18 | Cc1c(Cc2ccc(C(=O)NO)cc2)c2ccccc2n1CCN1CC[C@H](O)C1 [Compound 592, (S)—N-hydroxy-4-((1-(2-(3-hydroxypyrrolidin-1-yl)ethyl)-2-methyl-1H-indol-3-yl)methyl)benzamide] | 4.95 µM | 16 nM
19 | Cc1nccn1CCn1c(C)c(Cc2ccc(C(=O)NO)cc2)c2ccccc21 [Compound 201, N-hydroxy-4-((2-methyl-1-(2-(2-methyl-1H-imadazol-1-yl)ethyl)-1H-indol-3-yl)methyl)benzamide] | 2.47 µM | 9 nM
20 | Cc1c(Cc2ccc(C(=O)NO)cc2)c2ccccc2n1CC1CCN(Cc2cccc(F)c2)CC1 [Compound 631, 4-((1-((1-(3-Fluorobenzyl)piperidin-4-yl)methyl)-2-methyl-1H-indol-3-yl)methyl)-N-hydroxybenzamide] | > 10 µM | 1360 nM
21 | Cc1c(Cc2ccc(C(=O)NO)cc2)c2ccccc2n1CC1CCN(CC2(F)CCN(CC(C)(C)F)CC2)CC1 [Compound 615, 4-((1-((1-((4-Fluoro-1-(2-fluoro-2-methylpropyl)piperidin-4-yl)methyl)piperidin-4-yl)methyl)-2-methyl-1H-indol-3-yl)methyl)-N-hydroxybenzamide] | > 10 µM | 7 nM
22 | Cc1c(Cc2ccc(C(=O)NO)cc2)c2ccccc2n1CCN1CCOCC1 [Compound 153, N-hydroxy-4-((2-methyl-1-(2-morpholinoethyl)-1H-indol-3-yl)methyl)benzamide] | 4.38 µM | 140 nM
23 | Cc1c(Cc2ccc(C(=O)NO)cc2)c2ccccc2n1CC1CCN(CC2(F)CCCCC2)CC1 [Compound 698, 4-((1-((1-((1-Fluorocyclohexyl)methyl)piperidin-4-yl)methyl)-2-methyl-1H-indol-3-yl)methyl)-N-hydroxybenzamide] | > 10 µM | 430 nM
